From patent US20240132485A1, “HETEROCYCLIC CULLIN RING UBIQUITIN LIGASE COMPOUNDS AND USES THEREOF” (CEMM - FORSCHUNGSZENTRUM FÜR MOLEKULARE MEDIZIN GMBH, priority 2020, published 2024)

How the values were obtained:
[1] = test system: KBM7 cells harboring a hypomorphic UBE2M mutation; assay: KBM7 CTG EC50 assay (UBE2M knock-out); assay type: cell-based; conditions: Homo sapiens, KBM-7; 72 h incubation, CellTiter-Glo; read-out: KBM7 CTG EC50 (UBE2M knock-out) Activity Class
Source text: (§1) This is a cell viability assay to measure the desired therapeutic effect, i.e. killing of cancer cells. The UBE2M mutant cell line has impaired activity of the Cullin-RING ligase system due to a hypomorphic mutation in UBE2M, which is required for activation of these E3 ligases. By comparison with WT cells, it is possible to estimate the contribution of Cyclin K degradation (which is reduced in UBE2M mut cells) compared to kinase inhibition of CDK12 (which is unaffected in UBE2M mut cells). Since the UBE2M mutation only reduces CRL function without fully abrogating it, this assay may slightly underestimate the effect of degradation because, at high compound concentrations, degradation may still be observed.
(§2) KBM7 cells (wild-type or harboring α hypomorphic UBE2M mutation (Mayor-Ruiz et al., 2019)) were seeded in a white opaque 384-well plate at a density of 1000 cells per well in duplicate, in full medium (IMDM+10% FBS+1% penicillin-streptomycin). Cells were treated with compounds in a 10-point titration with a dilution factor of 1:4 (range: 0 to 20 μM). After 72 h of incubation, the cell viability was determined using the CellTiter-Glo® 2.0 reactant (Promega), pre-diluted 1:4 in mQ water. The luminescence signal was measured using the multimode plate reader EnVision 2105 (Perkin Elmer).

KBM7 cells (wild-type) = assay: KBM7 CTG EC50 assay (UBE2M wild-type); assay type: cell-based, human; conditions: for EC50: Homo sapiens, KBM-7, 72 h incubation, CellTiter-Glo, read-out: KBM7 CTG EC50 (UBE2M wild-type) Activity Class; for Ratio UBE2M WT to KO: ratio of anti-proliferative activity in KBM7 wild-type versus UBE2M knock-out cells (fold)
Source text: as §1, §2

CCNK = assay: NanoLuc-CCNK degradation assay (HEK293T_Nluc_CCNK-tagged cells); assay type: cell-based; conditions: 4 h incubation, HEK293T_Nluc_CCNK-tagged cells; for DC50: read-out: NanoLuc-CCNK degradation DC50 Activity Class
Procedure: The assay helps to elucidate the mechanistic explanation of the cell killing effect of the compounds of the present invention. Cyclin K is fused to a nanoluciferase, light emission is measured as a proxy of Cyclin K abundance. Potency of Cyclin K degradation and cytotoxicity of KBM7 correlate extremely well, further supporting Cyclin K degradation being the main driver of the cell killing, as opposed to inhibition of CDK12 catalytic activity.
HEK293T_Nluc_CCNK-tagged cells were engineered by integrating a nanoluciferase tag at the N-terminus of the endogenous locus of CCNK using CRISPR-Cas9 technology. Briefly, 5.5 million HEK293T cells were co-transfected by PEI with a 1:1 ratio of cutting vector (sgRNA: […]) and repair template (4 μg total plasmid) as previously described (Brand and Winter, 2019). The repair sequence comprises a cassette of puromycinR-P2A-HA-Nluc-(G4S)3 (P2A: self-cleaving peptide 2A, HA: HA-tag, (G4S)3: flexible linker), surrounded by 20-nucleotide microhomologies matching the genomic locus. After 3 days of incubation, the recombinant population was selected by puromycin treatment (2 μg/ml, 5-day treatment). A monoclonal population was obtained by limiting dilution and cassette integration validated by Sanger sequencing.
HEK293T_Nluc_CCNK-tagged cells were seeded in a white opaque 384-well plate at a density of 8000 cells per well in duplicate, in full medium (Opti-MEM I+4% FBS+1% PS). Cells were treated with compounds in a 10-point titration (range: 0 to 10 μM, 1:4 dilution). After 4 h of incubation, Nano-Glo substrate (Promega), pre-diluted in serum-free medium (Opti-MEM I), was added to the cells (1:500 final dilution). The luminescence signal was directly measured using the multimode plate reader EnVision 2105 (Perkin Elmer).

[2] = molecular target: T1, DDB1-CDK12/Cyclin K ternary complex (Homo sapiens, UniProt Q16531+Q9NYV4); assay: NanoBRET EC50 assay (HaloTag_CDK12 / NanoLuc_DDB1 in HEK293T); assay type: cell-based; conditions: 10-point titration from 20 μM, HEK293T
T1 construct: expressed in transfected cells; host or cells: HEK293T wildtype cells, transient PEI transfection
Procedure: (§3) This assay measures the interaction/recruitment of CDK12/Cyclin K to DDB1, mechanistically validating the molecular glue pharmacology.
(§4) HEK293T wildtype cells are seeded 800 k cells/well (DMEM+10% FBS+1% PS) in a 6-well plate and allowed to attach for ˜7 hours followed by a transient transfection of 1.5 μg HaloTag_CDK12 Plasmid [Table 1] and 0.15 μg NanoLuc_DDB1 plasmid [Table 1] per well using PEI. Cells are incubated at 37° C., 5% CO2, harvested after 24 hours and resuspended in assay media (Opti-MEM Reduced serum media, no phenol red, 4% FBS, 1% PS). Cells are adjusted to 2.3×10^5 cells/ml and treated with HaloTag 618 Ligand at 100 nM or DMSO. 8000 cells are seeded per well in triplicates per compound in a white-walled 384-well plate, one negative control treated with DMSO instead of HaloTag 618 Ligand is seeded in triplicates and the 384-well plate is incubated at 37° C., 5% CO2 overnight. Compound stock solutions are prepared in Opti-MEM−/− (Opti-MEM I Reduced serum media, no phenol red) at 8× and used to treat the cells at a final concentration of 1× at 10 μM. Cells and compounds are incubated for 10 minutes at room temperature followed by addition of NanoBRET Nano-Glo substrate following manufacturer's protocols. The plate is shaken for 30 sec followed by immediate measurement of donor emission (NanoBRET Blue at 460 nm) and acceptor emission (BRET Deep Red at 647 nm) for 0.5 s.
The assay setup is identical to “NanoBRET fold change experimental setup”. Instead of treating cells in […] with 10 μM compound, a 10-point titration starting at 20 μM is performed with a dilution factor of 1:4, covering α range of 20000 nM-0.076 nM.

[3] = molecular target: T1, DDB1-CDK12/Cyclin K ternary complex; assay: NanoBRET fold-change assay (HaloTag_CDK12 / NanoLuc_DDB1 in HEK293T); assay type: cell-based; conditions: 10 μM compound, 10 minutes
Procedure: as §3, §4

T1 sequence (Q9NYV4 whole entry): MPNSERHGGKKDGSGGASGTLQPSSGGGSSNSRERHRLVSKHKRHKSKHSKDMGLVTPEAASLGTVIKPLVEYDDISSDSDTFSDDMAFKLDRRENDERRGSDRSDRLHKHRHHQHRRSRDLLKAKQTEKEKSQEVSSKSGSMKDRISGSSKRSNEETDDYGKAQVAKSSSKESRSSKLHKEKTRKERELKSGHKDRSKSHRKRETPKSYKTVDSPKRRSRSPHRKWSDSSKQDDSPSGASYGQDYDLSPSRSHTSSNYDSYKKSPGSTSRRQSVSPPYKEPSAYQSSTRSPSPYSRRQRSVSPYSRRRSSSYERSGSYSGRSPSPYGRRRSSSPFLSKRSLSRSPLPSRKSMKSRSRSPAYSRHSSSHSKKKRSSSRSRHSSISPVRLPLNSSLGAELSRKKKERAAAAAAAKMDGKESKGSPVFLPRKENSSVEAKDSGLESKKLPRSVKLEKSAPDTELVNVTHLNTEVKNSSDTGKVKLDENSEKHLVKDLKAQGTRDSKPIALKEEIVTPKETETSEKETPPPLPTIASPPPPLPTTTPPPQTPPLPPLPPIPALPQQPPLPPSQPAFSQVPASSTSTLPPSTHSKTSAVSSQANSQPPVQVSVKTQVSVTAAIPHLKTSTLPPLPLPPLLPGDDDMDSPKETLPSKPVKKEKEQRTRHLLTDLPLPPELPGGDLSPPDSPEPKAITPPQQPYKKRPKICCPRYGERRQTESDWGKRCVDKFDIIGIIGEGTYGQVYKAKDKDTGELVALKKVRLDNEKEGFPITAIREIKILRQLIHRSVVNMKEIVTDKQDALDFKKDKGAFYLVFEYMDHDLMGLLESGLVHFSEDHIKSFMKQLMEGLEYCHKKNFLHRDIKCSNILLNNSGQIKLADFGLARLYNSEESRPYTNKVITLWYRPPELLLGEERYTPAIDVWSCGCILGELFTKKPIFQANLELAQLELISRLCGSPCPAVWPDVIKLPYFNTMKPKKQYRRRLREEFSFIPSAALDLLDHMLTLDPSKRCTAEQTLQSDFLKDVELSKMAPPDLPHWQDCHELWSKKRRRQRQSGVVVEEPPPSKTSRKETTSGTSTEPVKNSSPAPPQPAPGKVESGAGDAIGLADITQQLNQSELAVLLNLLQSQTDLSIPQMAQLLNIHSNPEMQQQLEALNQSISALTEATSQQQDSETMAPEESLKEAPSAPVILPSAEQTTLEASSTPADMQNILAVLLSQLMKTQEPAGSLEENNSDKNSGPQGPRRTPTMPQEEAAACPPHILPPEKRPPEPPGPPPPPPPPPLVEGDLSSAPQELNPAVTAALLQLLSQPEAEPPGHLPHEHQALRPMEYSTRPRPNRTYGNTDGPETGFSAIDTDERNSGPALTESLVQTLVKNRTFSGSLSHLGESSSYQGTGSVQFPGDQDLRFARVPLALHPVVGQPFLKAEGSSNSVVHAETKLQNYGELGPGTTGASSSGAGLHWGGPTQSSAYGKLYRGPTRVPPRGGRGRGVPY
T1 sequence (Q16531 whole entry): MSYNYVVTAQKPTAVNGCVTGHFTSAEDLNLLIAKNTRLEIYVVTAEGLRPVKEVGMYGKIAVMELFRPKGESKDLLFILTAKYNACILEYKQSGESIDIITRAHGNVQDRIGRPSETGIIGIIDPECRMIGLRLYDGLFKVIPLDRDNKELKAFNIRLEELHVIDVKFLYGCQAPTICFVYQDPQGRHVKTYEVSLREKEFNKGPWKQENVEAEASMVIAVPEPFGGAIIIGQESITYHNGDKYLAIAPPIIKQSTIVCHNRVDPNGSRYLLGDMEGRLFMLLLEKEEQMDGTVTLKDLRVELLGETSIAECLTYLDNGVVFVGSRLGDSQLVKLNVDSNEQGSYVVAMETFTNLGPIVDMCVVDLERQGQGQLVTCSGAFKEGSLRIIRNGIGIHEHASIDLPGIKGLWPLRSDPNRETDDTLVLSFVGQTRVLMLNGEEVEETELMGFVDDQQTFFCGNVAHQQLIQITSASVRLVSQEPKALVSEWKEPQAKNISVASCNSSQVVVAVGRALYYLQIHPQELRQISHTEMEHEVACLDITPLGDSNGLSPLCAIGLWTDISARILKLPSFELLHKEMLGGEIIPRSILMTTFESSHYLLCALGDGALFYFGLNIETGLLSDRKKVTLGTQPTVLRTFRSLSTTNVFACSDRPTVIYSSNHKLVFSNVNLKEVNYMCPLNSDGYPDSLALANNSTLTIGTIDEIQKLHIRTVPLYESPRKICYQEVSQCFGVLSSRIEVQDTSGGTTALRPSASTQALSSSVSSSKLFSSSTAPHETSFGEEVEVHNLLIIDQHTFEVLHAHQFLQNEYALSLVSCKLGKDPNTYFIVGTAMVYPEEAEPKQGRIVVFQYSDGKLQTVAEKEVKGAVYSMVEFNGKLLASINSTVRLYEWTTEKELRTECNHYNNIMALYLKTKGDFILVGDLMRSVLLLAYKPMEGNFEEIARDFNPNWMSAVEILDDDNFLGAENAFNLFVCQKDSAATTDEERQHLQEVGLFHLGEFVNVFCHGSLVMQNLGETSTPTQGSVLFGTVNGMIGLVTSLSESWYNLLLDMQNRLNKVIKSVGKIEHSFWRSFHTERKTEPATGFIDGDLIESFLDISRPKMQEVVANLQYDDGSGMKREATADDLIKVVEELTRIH
T1 sequence (O75909 whole entry partner): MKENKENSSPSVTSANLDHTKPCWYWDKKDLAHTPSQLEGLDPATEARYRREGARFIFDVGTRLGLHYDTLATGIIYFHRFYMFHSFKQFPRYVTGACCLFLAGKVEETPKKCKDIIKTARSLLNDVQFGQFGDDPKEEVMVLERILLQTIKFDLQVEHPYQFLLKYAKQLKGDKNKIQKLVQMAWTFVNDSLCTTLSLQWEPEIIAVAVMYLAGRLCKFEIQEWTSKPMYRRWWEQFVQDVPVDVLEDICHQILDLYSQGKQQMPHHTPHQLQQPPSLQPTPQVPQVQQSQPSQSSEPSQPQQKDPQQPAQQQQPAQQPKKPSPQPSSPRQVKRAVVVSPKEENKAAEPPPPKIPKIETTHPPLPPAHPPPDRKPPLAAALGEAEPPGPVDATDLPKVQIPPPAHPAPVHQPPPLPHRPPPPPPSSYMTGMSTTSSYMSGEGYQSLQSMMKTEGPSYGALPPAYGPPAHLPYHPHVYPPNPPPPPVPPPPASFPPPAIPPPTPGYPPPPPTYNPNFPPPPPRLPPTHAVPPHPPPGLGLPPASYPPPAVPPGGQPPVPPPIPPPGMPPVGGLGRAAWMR

## Cc1ccc2c(CC(=O)Nc3cc(C(F)(F)F)[nH]n3)coc2c1C [Example 3-48, 2-(6,7-dimethylbenzofuran-3-yl)-N-(5-(trifluoromethyl)-1H-pyrazol-3-yl)acetamide]
[1]
  EC50: 500 to 1000 nM
KBM7 cells (wild-type)
  EC50: ≤ 250 nM
  Ratio UBE2M WT to KO: 15.7
CCNK
  NanoLuc-CCNK degradation DC50 Activity Class: B (0.50 μM≤DC50<0.10 μM)
[2]
  NanoBRET EC50 Activity Class: B (0.50 μM≤EC50≤0.25 μM)
[3]
  NanoBRET fold-change Activity Class: B (3-4 fold increase)

## Cc1ccc2c(CC(=O)Nc3ccc(Br)cn3)coc2c1C [Example 3-53, N-(5-bromopyridin-2-yl)-2-(6,7-dimethylbenzofuran-3-yl)acetamide]
[1]
  EC50: 1000 to 10000 nM
KBM7 cells (wild-type)
  EC50: ≤ 250 nM
  Ratio UBE2M WT to KO: 22.7
CCNK
  NanoLuc-CCNK degradation DC50 Activity Class: B (0.50 μM≤DC50<0.10 μM)
[2]; read-out: NanoBRET EC50 Activity Class
  EC50: > 10000 nM
[3]
  NanoBRET fold-change Activity Class: B (3-4 fold increase)

## O=C(Cc1c[nH]c2cccnc12)Nc1ncc(C(F)(F)F)s1 [Example 3-40, 2-(1H-pyrrolo[3,2-b]pyridin-3-yl)-N-(5-(trifluoromethyl)thiazol-2-yl)acetamide]
[1]
  EC50: > 10000 nM
KBM7 cells (wild-type)
  EC50: ≤ 250 nM
  Ratio UBE2M WT to KO: >200
CCNK
  NanoLuc-CCNK degradation DC50 Activity Class: D (10 μM≤DC50<1.0 μM)
[2]
  NanoBRET EC50 Activity Class: B (0.50 μM≤EC50≤0.25 μM)

## O=C(Nc1ncc(C(F)(F)F)s1)C1CC(=O)N(c2ccc(Cl)cc2)C1 (stereo not shown) [Example 3-18, 1-(4-chlorophenyl)-5-oxo-N-(5-(trifluoromethyl)thiazol-2-yl)pyrrolidine-3-carboxamide]
[1]
  EC50: > 10000 nM
KBM7 cells (wild-type)
  EC50: ≤ 250 nM
  Ratio UBE2M WT to KO: >10
CCNK
  NanoLuc-CCNK degradation DC50 Activity Class: D (10 μM≤DC50<1.0 μM)
[3]
  NanoBRET fold-change Activity Class: C (2-3 fold increase)

## Cc1ccc(CN2CC(C(=O)Nc3ncc(C(F)(F)F)s3)CC2=O)cc1 (stereo not shown) [Example 3-29, 1-(4-methylbenzyl)-5-oxo-N-(5-(trifluoromethyl)thiazol-2-yl)pyrrolidine-3-carboxamide]
[1]
  EC50: > 10000 nM
KBM7 cells (wild-type)
  EC50: 500 to 1000 nM
  Ratio UBE2M WT to KO: >16
CCNK
  DC50: > 10000 nM
[3]
  NanoBRET fold-change Activity Class: B (3-4 fold increase)

## CC(C)c1cc(NC(=O)Cc2cn3cc(F)ccc3n2)n[nH]1 [Example 3-57, 2-(6-fluoroimidazo[1,2-a]pyridin-2-yl)-N-(5-isopropyl-1H-pyrazol-3-yl)acetamide]
[1]
  EC50: 1000 to 10000 nM
KBM7 cells (wild-type)
  EC50: ≤ 250 nM
  Ratio UBE2M WT to KO: 146.3
CCNK
  NanoLuc-CCNK degradation DC50 Activity Class: B (0.50 μM≤DC50<0.10 μM)
[3]
  NanoBRET fold-change Activity Class: B (3-4 fold increase)

## Cc1cccn2cc(CC(=O)Nc3ncc(C(F)(F)F)s3)nc12 [Example 3-7, 2-(8-methylimidazo[1,2-a]pyridin-2-yl)-N-(5-(trifluoromethyl)thiazol-2-yl)acetamide]
[1]
  EC50: 1000 to 10000 nM
KBM7 cells (wild-type)
  EC50: ≤ 250 nM
  Ratio UBE2M WT to KO: 42.4
CCNK
  DC50: > 10000 nM
[3]
  NanoBRET fold-change Activity Class: B (3-4 fold increase)

## O=C(Cc1ccc2cnccc2c1)Nc1ncc(C(F)(F)F)s1 [Example 3-31, 2-(isoquinolin-6-yl)-N-(5-(trifluoromethyl)thiazol-2-yl)acetamide]
[1]
  EC50: > 10000 nM
KBM7 cells (wild-type)
  EC50: 1000 to 10000 nM
  Ratio UBE2M WT to KO: >4
CCNK
  DC50: > 10000 nM
[3]
  NanoBRET fold-change Activity Class: C (2-3 fold increase)

## Cc1cccn2c(CC(=O)Nc3ncc(C(F)(F)F)s3)cnc12 [Example 3-6, 2-(8-methylimidazo[1,2-a]pyridin-3-yl)-N-(5-(trifluoromethyl)thiazol-2-yl)acetamide]
[1]
  EC50: 1000 to 10000 nM
KBM7 cells (wild-type)
  EC50: ≤ 250 nM
  Ratio UBE2M WT to KO: 129.4
CCNK
  NanoLuc-CCNK degradation DC50 Activity Class: D (10 μM≤DC50<1.0 μM)
[3]
  NanoBRET fold-change Activity Class: C (2-3 fold increase)

## Cc1ccc2c(CC(=O)Nc3cc(Cl)[nH]n3)coc2c1C [Example 3-49, N-(5-chloro-1H-pyrazol-3-yl)-2-(6,7-dimethylbenzofuran-3-yl)acetamide]
[1]
  EC50: 1000 to 10000 nM
KBM7 cells (wild-type)
  EC50: ≤ 250 nM
  Ratio UBE2M WT to KO: 37.3
CCNK
  NanoLuc-CCNK degradation DC50 Activity Class: B (0.50 μM≤DC50<0.10 μM)
[3]
  NanoBRET fold-change Activity Class: B (3-4 fold increase)

## O=C(Cc1cc2ccccc2o1)Nc1ncc(C(F)(F)F)s1 [Example 3-41, 2-(benzofuran-2-yl)-N-(5-(trifluoromethyl)thiazol-2-yl)acetamide]
[1]
  EC50: > 10000 nM
KBM7 cells (wild-type)
  EC50: 1000 to 10000 nM
  Ratio UBE2M WT to KO: >2
CCNK
  NanoLuc-CCNK degradation DC50 Activity Class: D (10 μM≤DC50<1.0 μM)
[3]
  NanoBRET fold-change Activity Class: C (2-3 fold increase)

## O=C(Nc1ncc(C(F)(F)F)s1)C1CC(=O)N(c2ccc3c(c2)CCC3)C1 (stereo not shown) [Example 3-24, 1-(2,3-dihydro-1H-inden-5-yl)-5-oxo-N-(5-(trifluoromethyl)thiazol-2-yl)pyrrolidine-3-carboxamide]
[1]
  EC50: 1000 to 10000 nM
KBM7 cells (wild-type)
  EC50: ≤ 250 nM
  Ratio UBE2M WT to KO: 23.8
CCNK
  NanoLuc-CCNK degradation DC50 Activity Class: B (0.50 μM≤DC50<0.10 μM)
[3]
  NanoBRET fold-change Activity Class: B (3-4 fold increase)

## Cc1ccc2c(CC(=O)Nc3ccc(C(F)(F)F)cn3)coc2c1C [Example 3-54, 2-(6,7-dimethylbenzofuran-3-yl)-N-(5-(trifluoromethyl)pyridin-2-yl)acetamide]
[1]
  EC50: 1000 to 10000 nM
KBM7 cells (wild-type)
  EC50: ≤ 250 nM
  Ratio UBE2M WT to KO: 24.7
CCNK
  DC50: > 10000 nM
[3]
  NanoBRET fold-change Activity Class: C (2-3 fold increase)
